In patent publication US10597388B2, “Pyridazinone herbicides” (FMC CORPORATION, priority 2014, dated 2020):

Tests used:
Assay in all cases: Test D controlled growth environment herbicide test, pre- and postemergence
Type in all cases: in vivo
[1] = system: blackgrass (Alopecurus myosuroides)
Summary of the method: (§1)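 Species sown in silt loam and sprayed preemergence, or grown in peat-based medium to 2–18 cm (1- to 4-leaf stage) and sprayed postemergence, with compounds in non-phytotoxic solvent plus surfactant. Visual injury scored versus controls after 14–21 d in a controlled environment, 0 (no effect) to 100 (complete control).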

[2] = system: pigweed (Amaranthus retroflexus)
Summary of the method: as §1

[3] = system: buckwheat, wild (wild buckwheat, Polygonum convolvulus)
Summary of the method: as §1

[4] = system: bluegrass (annual bluegrass, Poa annua)
Summary of the method: as §1

[5] = system: wheat, spring (spring wheat, Triticum aestivum)
Summary of the method: as §1

[6] = system: oat, wild (wild oat, Avena fatua)
Summary of the method: as §1

[7] = system: foxtail, green (green foxtail, Setaria viridis)
Summary of the method: as §1

[8] = system: radish, wild (wild radish, Raphanus raphanistrum)
Summary of the method: as §1

[9] = system: canarygrass (Phalaris minor)
Summary of the method: as §1

[10] = system: barley, spring (spring barley, Hordeum vulgare)
Summary of the method: as §1

[11] = system: field violet (Viola arvensis)
Summary of the method: as §1

[12] = system: chamomile (scentless chamomile, Matricaria inodora)
Summary of the method: as §1

[13] = system: ryegrass, Italian (Italian ryegrass, Lolium multiflorum)
Summary of the method: as §1

[14] = Postemergence, 31 g ai/ha, scale 0 to 100 (0 no effect, 100 complete control)
[15] = Postemergence, 125 g ai/ha, visual rating on scale 0 (no effect) to 100 (complete control), 14 to 21 d
[16] = Postemergence, 250 g ai/ha, scale 0 to 100 (0 no effect, 100 complete control)
[17] = Preemergence, 62 g ai/ha, scale 0 to 100 (0 no effect, 100 complete control)
[18] = Preemergence, 125 g ai/ha, scale 0 to 100 (0 no effect, 100 complete control)
[19] = Preemergence, 250 g ai/ha, scale 0 to 100 (0 no effect, 100 complete control)
[20] = postemergence, 62 g ai/ha, scale 0 to 100, 0 no effect, 100 complete control

`Cc1cc(C)c2sc(C)c(-c3c(OC(=O)OCCCl)c(C)nn(C)c3=O)c2c1` [Compound 85] was tested, and the “Blackgrass plant response rating” value [1, 14] was 75, the “Plant response rating, Blackgrass” value [1, 15] was 90 and the “Plant response rating, Blackgrass” value [1, 16] was 90. For the same molecule, the “Plant response rating (scale of 0 to 100), Blackgrass” value ([1]; Preemergence, 31 g ai/ha) was 75, the “Plant response rating, Blackgrass” value [1, 17] was 80 and the “Plant response rating, Blackgrass” value [1, 18] was 85. The “Plant response rating, Blackgrass” value [1, 19] was 85, the “Plant response rating, Blackgrass” value [1, 20] was 80 and the “Pigweed plant response rating” value [2, 14] was 75. The “Plant response rating, Pigweed” value [2, 15] was 85, the “Plant response rating, Pigweed” value [2, 16] was 85 and the “Plant response rating (scale of 0 to 100), Pigweed” value ([2]; Preemergence, 31 g ai/ha) was 95. The “Plant response rating (scale of 0 to 100), Pigweed” value ([2]; Preemergence, 62 g ai/ha) was 100, the “Plant response rating, Pigweed” value [2, 18] was 100 and the “Plant response rating, Pigweed” value [2, 19] was 100. The “Plant response rating, Pigweed” value [2, 20] was 80, the “Buckwheat, Wild plant response rating” value [3, 14] was 95 and the “Plant response rating, Buckwheat, Wild” value [3, 15] was 100. For the same molecule, the “Plant response rating, Buckwheat, Wild” value [3, 16] was 100, the “Plant response rating (scale of 0 to 100), Buckwheat, Wild” value ([3]; Preemergence, 31 g ai/ha) was 20 and the “Plant response rating, Buckwheat, Wild” value [3, 17] was 65. For the same molecule, the “Plant response rating, Buckwheat, Wild” value [3, 18] was 80, the “Plant response rating, Buckwheat, Wild” value [3, 19] was 100 and the “Plant response rating, Buckwheat, Wild” value [3, 20] was 100. The “Bluegrass plant response rating” value [4, 14] was 10, the “Plant response rating, Bluegrass” value [4, 15] was 25 and the “Plant response rating, Bluegrass” value [4, 16] was 40. For the same molecule, the “Plant response rating (scale of 0 to 100), Bluegrass” value ([4]; Preemergence, 31 g ai/ha) was 40, the “Plant response rating, Bluegrass” value [4, 17] was 60 and the “Plant response rating, Bluegrass” value [4, 18] was 65. The “Plant response rating, Bluegrass” value [4, 19] was 75, the “Plant response rating, Bluegrass” value [4, 20] was 20 and the “Wheat, Spring plant response rating” value [5, 14] was 0. For the same molecule, the “Plant response rating, Wheat, Spring” value [5, 15] was 15, the “Plant response rating, Wheat, Spring” value [5, 16] was 20 and the “Plant response rating (scale of 0 to 100), Wheat, Spring” value ([5]; Preemergence, 31 g ai/ha) was 0. For the same molecule, the “Plant response rating (scale of 0 to 100), Wheat, Spring” value ([5]; Preemergence, 62 g ai/ha) was 0, the “Plant response rating, Wheat, Spring” value [5, 18] was 15 and the “Plant response rating, Wheat, Spring” value [5, 19] was 40. The “Plant response rating, Wheat, Spring” value [5, 20] was 0, the “Oat, Wild plant response rating” value [6, 14] was 75 and the “Plant response rating, Oat, Wild” value [6, 15] was 95. The “Plant response rating, Oat, Wild” value [6, 16] was 100, the “Plant response rating (scale of 0 to 100), Oat, Wild” value ([6]; Preemergence, 31 g ai/ha) was 75 and the “Plant response rating (scale of 0 to 100), Oat, Wild” value ([6]; Preemergence, 62 g ai/ha) was 75. The “Plant response rating, Oat, Wild” value [6, 18] was 85, the “Plant response rating, Oat, Wild” value [6, 19] was 90 and the “Plant response rating, Oat, Wild” value [6, 20] was 85. For the same molecule, the “Foxtail, Green plant response rating” value [7, 14] was 75, the “Plant response rating, Foxtail, Green” value [7, 15] was 85 and the “Plant response rating, Foxtail, Green” value [7, 16] was 85. For the same molecule, the “Plant response rating (scale of 0 to 100), Foxtail, Green” value ([7]; Preemergence, 31 g ai/ha) was 25, the “Plant response rating (scale of 0 to 100), Foxtail, Green” value ([7]; Preemergence, 62 g ai/ha) was 55 and the “Plant response rating, Foxtail, Green” value [7, 18] was 100. For the same molecule, the “Plant response rating, Foxtail, Green” value [7, 19] was 100, the “Plant response rating, Foxtail, Green” value [7, 20] was 80 and the “Radish, Wild plant response rating” value [8, 14] was 60. For the same molecule, the “Plant response rating, Radish, Wild” value [8, 15] was 75, the “Plant response rating, Radish, Wild” value [8, 16] was 80 and the “Plant response rating (scale of 0 to 100), Radish, Wild” value ([8]; Preemergence, 31 g ai/ha) was 0. For the same molecule, the “Plant response rating (scale of 0 to 100), Radish, Wild” value ([8]; Preemergence, 62 g ai/ha) was 25, the “Plant response rating, Radish, Wild” value [8, 18] was 100 and the “Plant response rating, Radish, Wild” value [8, 19] was 100. The “Plant response rating, Radish, Wild” value [8, 20] was 65, the “Canarygrass plant response rating” value [9, 14] was 75 and the “Plant response rating, Canarygrass” value [9, 15] was 85. For the same molecule, the “Plant response rating, Canarygrass” value [9, 16] was 90, the “Plant response rating (scale of 0 to 100), Canarygrass” value ([9]; Preemergence, 31 g ai/ha) was 80 and the “Plant response rating (scale of 0 to 100), Canarygrass” value ([9]; Preemergence, 62 g ai/ha) was 90. For the same molecule, the “Plant response rating, Canarygrass” value [9, 18] was 90, the “Plant response rating, Canarygrass” value [9, 19] was 95 and the “Plant response rating, Canarygrass” value [9, 20] was 85. For the same molecule, the “Barley, Spring plant response rating” value [10, 14] was 0, the “Plant response rating, Barley, Spring” value [10, 15] was 15 and the “Plant response rating, Barley, Spring” value [10, 16] was 20. The “Plant response rating (scale of 0 to 100), Barley, Spring” value ([10]; Preemergence, 31 g ai/ha) was 0, the “Plant response rating, Barley, Spring” value [10, 17] was 0 and the “Plant response rating, Barley, Spring” value [10, 18] was 0. The “Plant response rating, Barley, Spring” value [10, 19] was 5, the “Plant response rating, Barley, Spring” value [10, 20] was 0 and the “Field Violet plant response rating” value [11, 14] was 65. For the same molecule, the “Plant response rating, Field Violet” value [11, 15] was 75, the “Plant response rating, Field Violet” value [11, 16] was 90 and the “Plant response rating (scale of 0 to 100), Field Violet” value ([11]; Preemergence, 31 g ai/ha) was 65. The “Plant response rating (scale of 0 to 100), Field Violet” value ([11]; Preemergence, 62 g ai/ha) was 70, the “Plant response rating, Field Violet” value [11, 18] was 95 and the “Plant response rating, Field Violet” value [11, 19] was 100. The “Plant response rating, Field Violet” value [11, 20] was 65, the “Chamomile plant response rating” value [12, 14] was 75 and the “Plant response rating, Chamomile” value [12, 15] was 90. For the same molecule, the “Plant response rating, Chamomile” value [12, 16] was 85, the “Plant response rating, Chamomile” value [12, 20] was 75 and the “Ryegrass, Italian plant response rating” value [13, 14] was 80. The “Plant response rating, Ryegrass, Italian” value [13, 15] was 85, the “Plant response rating, Ryegrass, Italian” value [13, 16] was 90 and the “Plant response rating (scale of 0 to 100), Ryegrass, Italian” value ([13]; Preemergence, 31 g ai/ha) was 55. The “Plant response rating (scale of 0 to 100), Ryegrass, Italian” value ([13]; Preemergence, 62 g ai/ha) was 80, the “Plant response rating, Ryegrass, Italian” value [13, 18] was 85 and the “Plant response rating, Ryegrass, Italian” value [13, 19] was 90. For the same molecule, the “Plant response rating, Ryegrass, Italian” value [13, 20] was 85.
